# Data from ChEMBL document CHEMBL3885881, “DrugMatrix”.
# Species on record: Rattus norvegicus
# Assay: DrugMatrix - Regimen: Daily Repeat
# Type: toxicity, organism-based, Sprague-Dawley
# Set-up: regimen Daily Repeat, gender Male, age 6-8 weeks
# Conditions: in vivo, po, route oral GAVAGE, vehicle 100 % WATER; for ABSOLUTE BASOPHIL / ABSOLUTE EOSINOPHIL / ABSOLUTE LYMPHOCYTE / ABSOLUTE MONOCYTE / ABSOLUTE SEGMENTED NEUTROPHIL / BASOPHIL / EOSINOPHIL / ERYTHROCYTE COUNT / HEMATOCRIT / HEMOGLOBIN / LEUKOCYTE COUNT / LYMPHOCYTE / MEAN CORPUSCULAR HEMOGLOBIN / MEAN CORPUSCULAR HEMOGLOBIN CONCENTRATION / MEAN CORPUSCULAR VOLUME / MONOCYTE / NEUTROPHIL / NUCLEATED RED BLOOD CELLS / PLATELET COUNT: tissue Blood; for ALANINE AMINOTRANSFERASE / ALBUMIN / ALKALINE PHOSPHATASE / ASPARTATE AMINOTRANSFERASE / BLOOD UREA NITROGEN / CARBON DIOXIDE / CHLORIDE / CHOLESTEROL / CREATINE PHOSPHOKINASE / CREATININE / GLUCOSE / LACTATE DEHYDROGENASE / LIPASE / PHOSPHORUS / POTASSIUM / SODIUM / TOTAL BILIRUBIN / TOTAL PROTEIN / URIC ACID: tissue Plasma
# [1] = 0 mg/kg, 72 h, dose level Control, time 3 day
# [2] = 0 mg/kg, 120 h, dose level Control, time 5 day
# [3] = 500 mg/kg, 72 h, dose level Low, time 3 day
structure (smiles),measurement,setting,value
NCCCCCC(=O)O [AMINOCAPROIC ACID],ABSOLUTE BASOPHIL,[1],0 CELLS/uL
same,ABSOLUTE EOSINOPHIL,[1],40 CELLS/uL
same,ABSOLUTE LYMPHOCYTE,[1],13599.5 CELLS/uL
same,ABSOLUTE MONOCYTE,[1],239.33 CELLS/uL
same,ABSOLUTE SEGMENTED NEUTROPHIL,[1],1021.17 CELLS/uL
same,BASOPHIL,[1],0%
same,EOSINOPHIL,[1],0.33%
same,ERYTHROCYTE COUNT,[1],5.71 x10E6/uL
same,HEMATOCRIT,[1],36.35%
same,HEMOGLOBIN,[1],14.05 G/DL
same,LEUKOCYTE COUNT,[1],14.9 x10E3/uL
same,LYMPHOCYTE,[1],91%
same,MEAN CORPUSCULAR HEMOGLOBIN,[1],24.62 pg
same,MEAN CORPUSCULAR HEMOGLOBIN CONCENTRATION,[1],38.65 G/DL
same,MEAN CORPUSCULAR VOLUME,[1],63.7 fL
same,MONOCYTE,[1],1.5%
same,NEUTROPHIL,[1],7.17%
same,NUCLEATED RED BLOOD CELLS,[1],0.33 /100WBC
same,PLATELET COUNT,[1],1225.5 x10E3/uL
same,ALANINE AMINOTRANSFERASE,[1],48.5 u/L
same,ALBUMIN,[1],4.18 G/DL
same,ALKALINE PHOSPHATASE,[1],390.83 u/L
same,ASPARTATE AMINOTRANSFERASE,[1],89 u/L
same,BLOOD UREA NITROGEN,[1],14.83 mg/dL
same,CARBON DIOXIDE,[1],24.83 mmol/L
same,CHLORIDE,[1],100.83 MEQ/L
same,CHOLESTEROL,[1],72.5 mg/dL
same,CREATINE PHOSPHOKINASE,[1],503 u/L
same,CREATININE,[1],0.2 mg/dL
same,GLUCOSE,[1],163 mg/dL
same,LACTATE DEHYDROGENASE,[1],316.83 u/L
same,LIPASE,[1],9.83 u/L
same,PHOSPHORUS,[1],11.57 mg/dL
same,POTASSIUM,[1],6.16 MEQ/L
same,SODIUM,[1],142.62 MEQ/L
same,TOTAL BILIRUBIN,[1],0.2 mg/dL
same,TOTAL PROTEIN,[1],5.8 G/DL
same,URIC ACID,[1],1.65 mg/dL
same,ABSOLUTE BASOPHIL,[2],0 CELLS/uL
same,ABSOLUTE EOSINOPHIL,[2],21 CELLS/uL
same,ABSOLUTE LYMPHOCYTE,[2],14288.5 CELLS/uL
same,ABSOLUTE MONOCYTE,[2],205.33 CELLS/uL
same,ABSOLUTE SEGMENTED NEUTROPHIL,[2],968.5 CELLS/uL
same,BASOPHIL,[2],0%
same,EOSINOPHIL,[2],0.17%
same,ERYTHROCYTE COUNT,[2],5.83 x10E6/uL
same,HEMATOCRIT,[2],36.53%
same,HEMOGLOBIN,[2],14.4 G/DL
same,LEUKOCYTE COUNT,[2],15.48 x10E3/uL
same,LYMPHOCYTE,[2],92%
same,MEAN CORPUSCULAR HEMOGLOBIN,[2],24.72 pg
same,MEAN CORPUSCULAR HEMOGLOBIN CONCENTRATION,[2],39.43 G/DL
same,MEAN CORPUSCULAR VOLUME,[2],62.68 fL
same,MONOCYTE,[2],1.33%
same,NEUTROPHIL,[2],6.5%
same,NUCLEATED RED BLOOD CELLS,[2],0.17 /100WBC
same,PLATELET COUNT,[2],1280.5 x10E3/uL
same,ALANINE AMINOTRANSFERASE,[2],50 u/L
same,ALBUMIN,[2],4.28 G/DL
same,ALKALINE PHOSPHATASE,[2],380.17 u/L
same,ASPARTATE AMINOTRANSFERASE,[2],82.67 u/L
same,BLOOD UREA NITROGEN,[2],15.33 mg/dL
same,CARBON DIOXIDE,[2],27.17 mmol/L
same,CHLORIDE,[2],100.33 MEQ/L
same,CHOLESTEROL,[2],60.67 mg/dL
same,CREATINE PHOSPHOKINASE,[2],441.5 u/L
same,CREATININE,[2],0.16 mg/dL
same,GLUCOSE,[2],146 mg/dL
same,LACTATE DEHYDROGENASE,[2],189.33 u/L
same,LIPASE,[2],9.17 u/L
same,PHOSPHORUS,[2],11.67 mg/dL
same,POTASSIUM,[2],6.86 MEQ/L
same,SODIUM,[2],142.33 MEQ/L
same,TOTAL BILIRUBIN,[2],0.2 mg/dL
same,TOTAL PROTEIN,[2],6.12 G/DL
same,URIC ACID,[2],1.82 mg/dL
same,ABSOLUTE BASOPHIL,[3],0 CELLS/uL
same,ABSOLUTE EOSINOPHIL,[3],0 CELLS/uL
same,ABSOLUTE LYMPHOCYTE,[3],14688.33 CELLS/uL
same,ABSOLUTE MONOCYTE,[3],111.67 CELLS/uL
same,ABSOLUTE SEGMENTED NEUTROPHIL,[3],1900 CELLS/uL
same,BASOPHIL,[3],0%
same,EOSINOPHIL,[3],0%
same,ERYTHROCYTE COUNT,[3],6.18 x10E6/uL
same,HEMATOCRIT,[3],38.13%
same,HEMOGLOBIN,[3],14.43 G/DL
same,LEUKOCYTE COUNT,[3],16.7 x10E3/uL
same,LYMPHOCYTE,[3],87.67%
same,MEAN CORPUSCULAR HEMOGLOBIN,[3],23.37 pg
same,MEAN CORPUSCULAR HEMOGLOBIN CONCENTRATION,[3],37.87 G/DL
same,MEAN CORPUSCULAR VOLUME,[3],61.8 fL
same,MONOCYTE,[3],0.67%
same,NEUTROPHIL,[3],11.67%
same,NUCLEATED RED BLOOD CELLS,[3],0.33 /100WBC
same,PLATELET COUNT,[3],1460 x10E3/uL
same,ALANINE AMINOTRANSFERASE,[3],62 u/L
same,ALBUMIN,[3],4.23 G/DL
same,ALKALINE PHOSPHATASE,[3],425.33 u/L
same,ASPARTATE AMINOTRANSFERASE,[3],90.33 u/L
same,BLOOD UREA NITROGEN,[3],16.67 mg/dL
same,CARBON DIOXIDE,[3],27.67 mmol/L
same,CHLORIDE,[3],100.33 MEQ/L
same,CHOLESTEROL,[3],70 mg/dL
same,CREATINE PHOSPHOKINASE,[3],270.33 u/L
same,CREATININE,[3],0.23 mg/dL
same,GLUCOSE,[3],150.67 mg/dL
same,LACTATE DEHYDROGENASE,[3],189.67 u/L
same,LIPASE,[3],9.33 u/L
same,PHOSPHORUS,[3],11.87 mg/dL
same,POTASSIUM,[3],7.16 MEQ/L
same,SODIUM,[3],144.07 MEQ/L
same,TOTAL BILIRUBIN,[3],0.27 mg/dL
same,TOTAL PROTEIN,[3],5.93 G/DL
same,URIC ACID,[3],1.67 mg/dL
